One assay has as its target Rho kinase 1 (Homo sapiens, UniProt Q13464). The assay is described as follows: In vitro Rho kinase inhibitory activity assay (ADP-Glo kit, Myelin Basic Protein substrate). It is filed as biochemical. As to conditions: 10 μM ATP, 25° C., read-out: ROCK1 inhibitory activity (Ki, range of activity). In a few lines:
(§1)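 Each kinase (ROCK1 or ROCK2) sat with compound for 30 min at 25 °C before 10 μM ATP started a 1 h reaction on 2.5 μM myelin basic protein (Tris pH 7.5, MgCl2, BSA, DTT, 1% DMSO). ADP formed was read by ADP-Glo luminescence. Dose-response IC50s were converted to Ki by Cheng-Prusoff.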
(In general: ADP-Glo first removes unused ATP, then detects ADP through luciferase.)

The next assay deals with Rho kinase 2 (Homo sapiens, UniProt O75116). The description is as above. It is filed as biochemical. As to conditions: 10 μM ATP, 25° C., read-out: ROCK2 inhibitory activity (Ki, range of activity). The essentials:
as §1

SMILES strings stand for the structures.

Rho kinase 1, sequence (Q13464 whole entry): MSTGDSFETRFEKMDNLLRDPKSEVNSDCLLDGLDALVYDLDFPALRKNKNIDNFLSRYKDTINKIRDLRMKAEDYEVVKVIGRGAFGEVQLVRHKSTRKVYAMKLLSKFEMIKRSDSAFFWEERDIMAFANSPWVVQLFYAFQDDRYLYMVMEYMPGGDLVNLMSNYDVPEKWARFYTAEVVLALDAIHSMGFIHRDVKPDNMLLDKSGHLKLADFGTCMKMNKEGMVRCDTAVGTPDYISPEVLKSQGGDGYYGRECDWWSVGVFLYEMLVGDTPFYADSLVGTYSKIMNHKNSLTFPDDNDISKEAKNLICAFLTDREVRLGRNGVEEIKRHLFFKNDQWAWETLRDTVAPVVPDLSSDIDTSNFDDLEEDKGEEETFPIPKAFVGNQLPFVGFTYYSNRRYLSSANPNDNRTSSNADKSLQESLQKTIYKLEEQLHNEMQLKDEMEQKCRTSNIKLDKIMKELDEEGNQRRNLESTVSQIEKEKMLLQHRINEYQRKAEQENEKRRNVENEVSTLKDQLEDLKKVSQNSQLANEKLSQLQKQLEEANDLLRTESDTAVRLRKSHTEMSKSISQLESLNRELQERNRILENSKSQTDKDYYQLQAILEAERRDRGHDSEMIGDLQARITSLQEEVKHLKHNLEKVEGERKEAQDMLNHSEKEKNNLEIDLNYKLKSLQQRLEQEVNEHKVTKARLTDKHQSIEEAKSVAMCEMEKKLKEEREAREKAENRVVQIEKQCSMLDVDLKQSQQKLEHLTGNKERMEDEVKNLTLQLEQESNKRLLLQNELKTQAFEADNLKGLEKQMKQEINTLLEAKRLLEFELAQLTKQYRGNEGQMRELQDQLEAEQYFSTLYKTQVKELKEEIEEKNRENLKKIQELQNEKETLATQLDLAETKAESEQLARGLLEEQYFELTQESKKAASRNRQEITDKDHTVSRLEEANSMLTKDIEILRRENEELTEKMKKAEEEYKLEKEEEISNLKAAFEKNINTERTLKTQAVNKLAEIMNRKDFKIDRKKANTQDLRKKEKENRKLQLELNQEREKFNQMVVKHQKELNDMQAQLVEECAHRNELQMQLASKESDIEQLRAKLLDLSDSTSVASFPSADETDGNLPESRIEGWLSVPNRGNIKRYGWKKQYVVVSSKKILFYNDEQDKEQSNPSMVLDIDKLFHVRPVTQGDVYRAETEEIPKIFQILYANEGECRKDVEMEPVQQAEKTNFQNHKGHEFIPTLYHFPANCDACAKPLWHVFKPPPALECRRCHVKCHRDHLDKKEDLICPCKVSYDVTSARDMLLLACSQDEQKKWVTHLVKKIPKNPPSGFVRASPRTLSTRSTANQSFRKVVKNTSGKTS
Rho kinase 2, sequence (O75116 whole entry): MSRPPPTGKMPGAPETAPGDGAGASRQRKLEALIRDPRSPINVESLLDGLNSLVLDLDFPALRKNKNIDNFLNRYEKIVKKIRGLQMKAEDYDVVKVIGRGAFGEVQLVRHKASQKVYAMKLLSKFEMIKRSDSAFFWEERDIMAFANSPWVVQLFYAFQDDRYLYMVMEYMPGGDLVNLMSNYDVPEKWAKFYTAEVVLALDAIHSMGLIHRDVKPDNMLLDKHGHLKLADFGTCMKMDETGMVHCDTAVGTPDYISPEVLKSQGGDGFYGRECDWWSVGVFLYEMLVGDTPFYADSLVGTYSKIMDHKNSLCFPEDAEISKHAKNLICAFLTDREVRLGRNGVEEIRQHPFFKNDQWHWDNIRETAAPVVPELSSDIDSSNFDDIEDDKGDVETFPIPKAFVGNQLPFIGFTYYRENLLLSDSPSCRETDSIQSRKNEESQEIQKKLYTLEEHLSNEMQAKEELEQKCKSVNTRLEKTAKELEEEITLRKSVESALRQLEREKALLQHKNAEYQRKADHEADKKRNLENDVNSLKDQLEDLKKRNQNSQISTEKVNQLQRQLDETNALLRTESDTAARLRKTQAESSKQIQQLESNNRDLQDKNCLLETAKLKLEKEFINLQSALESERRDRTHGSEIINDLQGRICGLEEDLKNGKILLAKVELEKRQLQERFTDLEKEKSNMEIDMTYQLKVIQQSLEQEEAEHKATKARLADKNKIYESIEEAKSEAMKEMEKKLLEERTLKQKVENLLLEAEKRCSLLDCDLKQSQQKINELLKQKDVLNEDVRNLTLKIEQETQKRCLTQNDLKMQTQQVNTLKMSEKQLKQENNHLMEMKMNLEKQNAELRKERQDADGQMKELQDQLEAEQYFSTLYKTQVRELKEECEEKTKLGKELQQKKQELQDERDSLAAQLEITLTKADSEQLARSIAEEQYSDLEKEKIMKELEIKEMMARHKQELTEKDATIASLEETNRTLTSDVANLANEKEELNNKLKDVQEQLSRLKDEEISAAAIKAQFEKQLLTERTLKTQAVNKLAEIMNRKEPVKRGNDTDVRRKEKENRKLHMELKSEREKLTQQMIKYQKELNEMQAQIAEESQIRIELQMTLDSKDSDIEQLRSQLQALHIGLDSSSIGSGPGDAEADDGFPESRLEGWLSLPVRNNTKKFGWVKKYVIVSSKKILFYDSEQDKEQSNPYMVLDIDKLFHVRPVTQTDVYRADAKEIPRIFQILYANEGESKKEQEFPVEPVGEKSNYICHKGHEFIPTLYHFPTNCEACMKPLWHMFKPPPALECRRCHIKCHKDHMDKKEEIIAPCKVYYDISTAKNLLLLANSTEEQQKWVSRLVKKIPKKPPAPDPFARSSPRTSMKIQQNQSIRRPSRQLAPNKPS

A word on the Ki: it is the equilibrium dissociation constant of an inhibitor or competing ligand from its target. In the case of `CC1=C(C(=O)Nc2ccc3cnccc3c2)C(c2ccc(C(F)(F)F)c(F)c2)n2nc(CN(C)C)cc2N1` (single isomer, unassigned) [Example 94B, 2-((dimethylamino)methyl)-7-(3-fluoro-4-(trifluoromethyl)phenyl)-N-(isoquinolin-6-yl)-5-methyl-4,7-dihydropyrazolo[1,5-a]pyrimidine-6-carboxamide], the Ki on Rho kinase 1 and at Rho kinase 2 was less than 50 nM each time.
Consider `CCOC(=O)c1cc2n(n1)C(c1ccc(C(F)(F)F)c(F)c1)C(C(=O)Nc1cc3ccncc3s1)=C(C)N2` (stereo not shown) [Example 42, ethyl 7-(3-fluoro-4-(trifluoromethyl)phenyl)-5-methyl-6-(thieno[2,3-c]pyridin-2-ylcarbamoyl)-4,7-dihydropyrazolo[1,5-a]pyrimidine-2-carboxylate], for which the Ki at Rho kinase 1 and on Rho kinase 2 was less than 50 nM throughout.
As to `CC1=C(C(=O)Nc2ccc3cnccc3c2)C(c2ccc(C(F)(F)F)c(F)c2F)n2nc(CN(C)C)cc2N1` (stereo not shown) [Example 122, 7-(2,3-difluoro-4-(trifluoromethyl)phenyl)-2-((dimethylamino)methyl)-N-(isoquinolin-6-yl)-5-methyl-4,7-dihydropyrazolo[1,5-a]pyrimidine-6-carboxamide], the Ki on Rho kinase 1 and at Rho kinase 2 was less than 50 nM each time.
On to `CC1=C(C(=O)Nc2ccc3[nH]ncc3c2)C(C2CCN(C)CC2)n2nc(C(F)(F)F)cc2N1` (stereo not shown) [Example 33, N-(1H-indazol-5-yl)-5-methyl-7-(1-methylpiperidin-4-yl)-2-(trifluoromethyl)-4,7-dihydropyrazolo[1,5-a]pyrimidine-6-carboxamide], for which the Ki at Rho kinase 1 and on Rho kinase 2 was greater than 500 nM each time.
Turning to `CC1=C(C(=O)Nc2ccc3cnccc3c2)C(c2ccc(C)c(F)c2)n2nc(NC(=O)CN3CCCC3)cc2N1` (stereo not shown) [Example 134, 7-(3-fluoro-4-methylphenyl)-N-(isoquinolin-6-yl)-5-methyl-2-(2-(pyrrolidin-1-yl)acetamido)-4,7-dihydropyrazolo[1,5-a]pyrimidine-6-carboxamide], the Ki on Rho kinase 1 and at Rho kinase 2 was less than 50 nM in each case.
Turning to `CC1=C(C(=O)Nc2ccc3cnccc3c2)C(c2ccc(C(F)(F)F)c(F)c2)n2nc(C(=O)NCCN3CCN(C)CC3)cc2N1` (stereo not shown) [Example 81, 7-(3-fluoro-4-(trifluoromethyl)phenyl)-N6-(isoquinolin-6-yl)-5-methyl-N2-(2-(4-methylpiperazin-1-yl)ethyl)-4,7-dihydropyrazolo[1,5-a]pyrimidine-2,6-dicarboxamide], the Ki at Rho kinase 1 and at Rho kinase 2 was less than 50 nM throughout.
On to `COCC1=C(C(=O)Nc2ccc3cnccc3c2)C(c2ccc(C(F)(F)F)c(F)c2)n2nc(CO)cc2N1` (stereo not shown) [Example 119, 7-(3-fluoro-4-(trifluoromethyl)phenyl)-2-(hydroxymethyl)-N-(isoquinolin-6-yl)-5-(methoxymethyl)-4,7-dihydropyrazolo[1,5-a]pyrimidine-6-carboxamide], for which the Ki at Rho kinase 1 and at Rho kinase 2 was less than 50 nM throughout.
For the molecule `CC1=C(C(=O)Nc2ccc3cnccc3c2)C(c2ccc(C(F)(F)F)c(F)c2)n2nc(NC(=O)CN3CCCC3)cc2N1` (single isomer, unassigned) [132B], the Ki at Rho kinase 1 and on Rho kinase 2 was greater than 500 nM in each case.
Turning to `CCOC(=O)c1cc2n(n1)C(c1nc3ccccc3s1)C(C(=O)Nc1ccc3cnccc3c1)=C(C)N2` (stereo not shown) [Example 8, ethyl 7-(benzo[d]thiazol-2-yl)-6-(isoquinolin-6-ylcarbamoyl)-5-methyl-4,7-dihydropyrazolo[1,5-a]pyrimidine-2-carboxylate], the Ki at Rho kinase 1 and at Rho kinase 2 was less than 50 nM throughout.
For the molecule `CCOC(=O)c1cc2n(n1)C(c1ccc(Cl)cc1F)C(C(=O)Nc1ccc3[nH]ncc3c1)=C(C)N2` (single isomer, unassigned) [Example 7A, ethyl 6-((1H-indazol-5-yl)carbamoyl)-7-(4-chloro-2-fluorophenyl)-5-methyl-4,7-dihydropyrazolo[1,5-a]pyrimidine-2-carboxylate], the Ki at Rho kinase 1 and on Rho kinase 2 was less than 50 nM each time.
For the molecule `CC1=C(C(=O)Nc2ccc3cnccc3c2)C(c2ccc(C(F)(F)F)c(F)c2)n2nc(C(=O)NCCN3CCCCC3)cc2N1` (single isomer, unassigned) [77B], the Ki at Rho kinase 1 and at Rho kinase 2 was less than 50 nM each time.
For `CC1=C(C(=O)Nc2ccc3cnccc3c2)C(c2ccc(C(F)(F)F)c(F)c2)n2nc(CN(C)CC3CCN(C)CC3)cc2N1` (single isomer, unassigned) [Example 104B, 7-(3-fluoro-4-(trifluoromethyl)phenyl)-N-(isoquinolin-6-yl)-5-methyl-2-((methyl((1-methylpiperidin-4-yl)methyl)amino)methyl)-4,7-dihydropyrazolo[1,5-a]pyrimidine-6-carboxamide], the Ki at Rho kinase 1 is 50 to 500 nM; at Rho kinase 2, less than 50 nM.
In the same order, the values of `CC1=C(C(=O)Nc2ccc3cnccc3c2)C(c2cccc3c2ccn3C)n2nc(CO)cc2N1` (stereo not shown) [Example 44, 2-(hydroxymethyl)-N-(isoquinolin-6-yl)-5-methyl-7-(1-methyl-1H-indol-4-yl)-4,7-dihydropyrazolo[1,5-a]pyrimidine-6-carboxamide] are 50 to 500 nM and 50 to 500 nM.
For `CC1=C(C(=O)Nc2ccc3cnccc3c2)C(C23CC4CC(CC(C4)C2)C3)n2nc(CO)cc2N1` (stereo not shown) [Example 48, 7-((3r,5r,7r)-adamantan-1-yl)-2-(hydroxymethyl)-N-(isoquinolin-6-yl)-5-methyl-4,7-dihydropyrazolo[1,5-a]pyrimidine-6-carboxamide], in that order: 50 to 500 nM and 50 to 500 nM.
In the same order, the values of `CCOC(=O)c1cc2n(n1)C(CC(C)C)C(C(=O)Nc1ccc3[nH]ncc3c1)=C(C)N2` (stereo not shown) [Example 13, ethyl 6-((1H-indazol-5-yl)carbamoyl)-7-isobutyl-5-methyl-4,7-dihydropyrazolo[1,5-a]pyrimidine-2-carboxylate] are 50 to 500 nM and 50 to 500 nM.
With `CC1=C(C(=O)Nc2ccc3[nH]ncc3c2)C(c2ccc(C(F)(F)F)cc2)n2nc(CN)cc2N1` (stereo not shown) [Example 111, 2-(aminomethyl)-N-(1H-indazol-5-yl)-5-methyl-7-(4-(trifluoromethyl)phenyl)-4,7-dihydropyrazolo[1,5-a]pyrimidine-6-carboxamide], the Ki at Rho kinase 1 and on Rho kinase 2 was less than 50 nM in each case.
For `CC1=C(C(=O)Nc2ccc3cnccc3c2)C(c2ccc(C(F)(F)F)c(F)c2)n2nc(C(=O)NCCN3CCOCC3)cc2N1` (stereo not shown) [Example 82, 7-(3-fluoro-4-(trifluoromethyl)phenyl)-N6-(isoquinolin-6-yl)-5-methyl-N2-(2-morpholinoethyl)-4,7-dihydropyrazolo[1,5-a]pyrimidine-2,6-dicarboxamide], the Ki at Rho kinase 1 and at Rho kinase 2 was less than 50 nM each time.
As to `CC1=C(C(=O)Nc2ccc3cnccc3c2)C(c2ccc(C(F)(F)F)c(F)c2)n2nc(C(=O)N3C[C@H]4CN(C)C[C@H]4C3)cc2N1` (stereo partly shown) [Example 86, 7-(3-fluoro-4-(trifluoromethyl)phenyl)-N-(isoquinolin-6-yl)-5-methyl-2-(5-methyloctahydropyrrolo[3,4-c]pyrrole-2-carbonyl)-4,7-dihydropyrazolo[1,5-a]pyrimidine-6-carboxamide], the Ki at Rho kinase 1 and at Rho kinase 2 was less than 50 nM throughout.
For `CC1=C(C(=O)Nc2ccc3cnccc3c2)C(c2ccc(C(F)(F)F)c(F)c2)n2nc(C3CCN(C(=O)CCN4CCCCC4)CC3)cc2N1` (single isomer, unassigned) [135B], the Ki at Rho kinase 1 and at Rho kinase 2 was less than 50 nM throughout.
For `CC1=C(C(=O)Nc2ccc3cnccc3c2)C(c2ccc(C)cc2F)n2nc(CO)cc2N1` (stereo not shown) [Example 59, 7-(2-fluoro-4-methylphenyl)-2-(hydroxymethyl)-N-(isoquinolin-6-yl)-5-methyl-4,7-dihydropyrazolo[1,5-a]pyrimidine-6-carboxamide], the Ki on Rho kinase 1 and at Rho kinase 2 was less than 50 nM in each case.

For the origin of these results see US10584128B2, “Bicyclic dihydropyrimidine-carboxamide derivatives as Rho-Kinase inhibitors” (CHIESI FARMACEUTICI S.p.A., priority 2016, dated 2020).
